# Test results published in patent publication US12661410B2, “Compounds for targeted degradation of RET” (C4 Therapeutics, Inc., priority 2020, dated 2026).
# Substitutions are numbered along the chain they refer to. Read-outs that look alike come from different tables or passages of the source.
# What was measured:
# RET(KD: 658-1114 G810R) = biological target: T1, RET(KD: 658-1114 G810R) (Homo sapiens, UniProt P07949, G810R); assay: HiBiT-Degradation, RET G810R degradation assay (Nano-Glo HiBiT Lytic), 293T.165 cells; assay type: cell-based; conditions: for Emax / DC50: 6.0 hours
# T1 construct: 658-1114; expressed in transfected cells; host or cells: 293T.165 (293T cells, generated in-house)
# T1 sequence (P07949 658-1114 G810R): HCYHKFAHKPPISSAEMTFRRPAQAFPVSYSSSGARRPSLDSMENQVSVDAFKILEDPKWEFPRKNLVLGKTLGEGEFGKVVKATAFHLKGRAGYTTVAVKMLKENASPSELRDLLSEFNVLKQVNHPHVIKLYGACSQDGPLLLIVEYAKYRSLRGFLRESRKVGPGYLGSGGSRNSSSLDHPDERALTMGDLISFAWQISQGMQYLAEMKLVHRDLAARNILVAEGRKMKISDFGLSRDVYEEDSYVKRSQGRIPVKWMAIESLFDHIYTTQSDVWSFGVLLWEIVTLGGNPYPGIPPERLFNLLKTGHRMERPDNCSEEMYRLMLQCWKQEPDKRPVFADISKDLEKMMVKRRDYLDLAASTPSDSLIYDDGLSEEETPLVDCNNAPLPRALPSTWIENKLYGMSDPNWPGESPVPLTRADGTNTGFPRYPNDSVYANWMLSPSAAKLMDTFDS
# Method in brief: (§1)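 HEK293T lines expressing HiBiT-tagged RET kinase domain, wild-type (293T.144) or G810R (293T.165), treated 6 h in duplicate, 11-point half-log series from 10 μM top. Lytic HiBiT luminescence read; DC50 and Emax (% protein remaining) from dose-response curves.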
# RET (658-1114) = biological target: T2, RET (658-1114) (Homo sapiens, UniProt P07949); assay: HiBiT-Degradation, RET wild-type degradation assay (Nano-Glo HiBiT Lytic), 293T.144 cells; assay type: cell-based; conditions: for Emax / DC50: 6.0 hours
# T2 construct: 658-1114; expressed in transfected cells; host or cells: 293T.144 (293T cells, generated in-house)
# T2 sequence (P07949 658-1114): T1 sequence (P07949 658-1114 G810R) with R153G
# Method in brief: as §1
# [1] = % remaining protein, read-out: 293T.165 RET(KD: 658-1114 G810R) 6.0 hours (Emax)
# [2] = half-maximal degradation concentration, read-out: 293T.165 RET(KD: 658-1114 G810R) 6.0 hours (DC50)
# [3] = % remaining protein, read-out: 293T.144 RET (658-1114) 6.0 hours (Emax)
# [4] = half-maximal degradation concentration, read-out: 293T.144 RET (658-1114) 6.0 hours (DC50)
# [5] = RET G810R, read-out: HiBiT-Degradation 293T.165 RET(KD: 658-1114 G810R) 6.0 hours (DC50)
# [6] = RET G810R, read-out: HiBiT-Degradation 293T.165 RET(KD: 658-1114 G810R) 6.0 hours (Emax)
# [7] = RET wild-type, read-out: HiBiT-Degradation 293T.144 RET (658-1114) 6.0 hours (DC50)
# [8] = RET wild-type, read-out: HiBiT-Degradation 293T.144 RET (658-1114) 6.0 hours (Emax)
# [9] = HiBiT-Degradation, read-out: 293T.165 RET(KD: 658-1114 G810R) 6.0 hours (DC50)
# [10] = HiBiT-Degradation, read-out: 293T.144 RET (658-1114) 6.0 hours (DC50)
# [11] = HiBiT-Degradation, read-out: 293T.144 RET (658-1114) 6.0 hours (Emax)
Structure (SMILES),293T.165 RET(KD: 658-1114 G810R) 6.0 hours (IP) [nM] (RET(KD: 658-1114 G810R)),Emax (RET(KD: 658-1114 G810R); [1]),DC50 (RET(KD: 658-1114 G810R); [2]),293T.144 RET (658-1114) 6.0 hours (IP) [nM] (RET (658-1114)),Emax (RET (658-1114); [3]),DC50 (RET (658-1114); [4]),HiBiT-Degradation 293T.165 RET(KD: 658-1114 G810R) 6.0 hours (IP) [nM] (RET(KD: 658-1114 G810R); RET G810R),DC50 (RET(KD: 658-1114 G810R); [5]),Emax (RET(KD: 658-1114 G810R); [6]),HiBiT-Degradation 293T.144 RET (658-1114) 6.0 hours (IP) [nM] (RET (658-1114); RET wild-type),DC50 (RET (658-1114); [7]),Emax (RET (658-1114); [8]),293T.165 RET(KD: 658-1114 G810R) 6.0 hours (Emax) (RET(KD: 658-1114 G810R); HiBiT-Degradation),293T.165 RET(KD: 658-1114 G810R) 6.0 hours (IP) [nM] (RET(KD: 658-1114 G810R); HiBiT-Degradation),DC50 (RET(KD: 658-1114 G810R); [9]),293T.144 RET (658-1114) 6.0 hours (IP) [nM] (RET (658-1114); HiBiT-Degradation),DC50 (RET (658-1114); [10]),Emax (RET (658-1114); [11])
"N#Cc1cnn2cc(-c3cnn([C@H]4CC[C@H](N5CCC(c6ccc(N[C@@H]7CCC(=O)NC7=O)cc6F)CC5)CC4)c3)nc(-c3ccc(N4CCC5(CC4)OCc4cccnc45)nc3)c12 (single isomer, unassigned) [Compound 180]",++++ (<50 nM = ++++),< 30%,< 50 nM,++++ (<50 nM = ++++),< 30%,< 50 nM,,,,,,,,,,,,
"N#Cc1cnn2cc(-c3cnn(C4CCN(C(=O)CN5CCC(c6ccc(NC7CCC(=O)NC7=O)cc6F)CC5)CC4)c3)nc(-c3ccc(N4CCC(Cc5ccccn5)CC4)nc3)c12 (centres unmarked) [Compound 72, 6-[1-[1-[2-[4-[4-[(2,6-dioxo-3-piperidyl)amino]-2-fluoro-phenyl]-1-piperidyl]acetyl]-4-piperidyl]pyrazol-4-yl]-4-[6-[4-(2-pyridylmethyl)-1-piperidyl]-3-pyridyl]pyrazolo[1,5-a]pyrazine-3-carbonitrile]",,< 50%,< 50 nM,,,,++++ (< 50 nM = ++++),< 50 nM,< 50%,++++ (< 50 nM = ++++),< 50 nM,< 30%,,,,,,
"CCC1(C(=O)NC2CCC2)CCN(c2ccc(-c3nc(-c4cnn([C@H]5CC[C@H](N6CCC(c7ccc(N[C@@H]8CCC(=O)NC8=O)cc7Cl)CC6)CC5)c4)cn4ncc(C#N)c34)cn2)CC1 (single isomer, unassigned) [Compound 131]",++++ (<50 nM = ++++),< 30%,< 50 nM,++++ (<50 nM = ++++),< 30%,< 50 nM,,,,,,,,,,,,
"CCC1(C(=O)NC(C)C)CCN(c2ccc(-c3nc(-c4cnn(CC5CCN(C(=O)CC6(O)CCN(c7ccc(NC8CCC(=O)NC8=O)cc7F)CC6)CC5)c4)cn4ncc(C#N)c34)cn2)CC1 (centres unmarked) [Compound 84, 1-[5-[3-cyano-6-[1-[[1-[2-[1-[4-[(2,6-dioxo-3-piperidyl)amino]-2-fluoro-phenyl]-4-hydroxy-4-piperidyl]acetyl]-4-piperidyl]methyl]pyrazol-4-yl]pyrazolo[1,5-a]pyrazin-4-yl]-2-pyridyl]-4-ethyl-N-isopropyl-piperidine-4-carboxamide]",,< 30%,< 100 nM,,,,++++ (< 50 nM = ++++),< 100 nM,< 30%,++++ (< 50 nM = ++++),< 50 nM,< 30%,,,,,,
"N#Cc1cnn2cc(-c3cnn([C@H]4CC[C@H](N5CCC(c6ccc(NC7CCC(=O)NC7=O)cc6F)CC5)CC4)c3)nc(-c3ccc(N4CC5COCC(C4)N5Cc4ccccn4)nc3)c12 (single isomer, unassigned) [Compound 154, 6-[1-[4-[4-[4-[(2,6-dioxo-3-piperidyl)amino]-2-fluoro-phenyl]-1-piperidyl]cyclohexyl]pyrazol-4-yl]-4-[6-[9-(2-pyridylmethyl)-3-oxa-7,9-diazabicyclo[3.3.1]nonan-7-yl]-3-pyridyl]pyrazolo[1,5-a]pyrazine-3-carbonitrile]",++++ (<50 nM = ++++),< 30%,< 50 nM,++++ (<50 nM = ++++),< 30%,< 50 nM,,,,,,,,,,,,
"Cn1nc(N2CCC(=O)NC2=O)c2ccc(N3CCN([C@H]4CC[C@H](n5cc(-c6cn7ncc(C#N)c7c(-c7ccc(N8C[C@H]9COC[C@@H](C8)N9Cc8ccccn8)nc7)n6)cn5)CC4)CC3)c(F)c21 [Compound 208, 6-[1-[4-[4-[3-(2,4-dioxohexahydropyrimidin-1-yl)-7-fluoro-1-methyl-indazol-6-yl]piperazin-1-yl]cyclohexyl]pyrazol-4-yl]-4-[6-[(1S,5R)-9-(2-pyridylmethyl)-3-oxa-7,9-diazabicyclo[3.3.1]nonan-7-yl]-3-pyridyl]pyrazolo[1,5-a]pyrazine-3-carbonitrile]",++++ (<50 nM = ++++),< 30%,< 100 nM,++++ (<50 nM = ++++),< 30%,< 50 nM,,,,,,,,,,,,
"N#Cc1cnn2cc(-c3cnn(C4CCN(C(=O)CN5CCC(c6ccc(NC7CCC(=O)NC7=O)cc6F)CC5)CC4)c3)nc(-c3ccc(N4CCN(C(=O)Cc5ccc(F)cn5)CC4)nc3)c12 (centres unmarked) [Compound 51, 6-[1-[1-[2-[4-[4-[(2,6-dioxo-3-piperidyl)amino]-2-fluoro-phenyl]-1-piperidyl]acetyl]-4-piperidyl]pyrazol-4-yl]-4-[6-[4-[2-(5-fluoro-2-pyridyl)acetyl]piperazin-1-yl]-3-pyridyl]pyrazolo[1,5-a]pyrazine-3-carbonitrile]",,< 50%,< 100 nM,,,,,,,,,,+++ (<50% = +++),++++ (< 50 nM = ++++),< 100 nM,++++ (< 50 nM = ++++),< 50 nM,< 30%
"CCC1(C(=O)NC2CCC2)CCN(c2ccc(-c3nc(-c4cnn([C@H]5CC[C@H](N6CCC(c7ccc(N[C@@H]8CCC(=O)NC8=O)cc7)CC6)CC5)c4)cn4ncc(C#N)c34)cn2)CC1 (single isomer, unassigned) [Compound 128]",++++ (<50 nM = ++++),< 30%,< 50 nM,++++ (<50 nM = ++++),< 30%,< 50 nM,,,,,,,,,,,,
"CCC1(C(=O)NC(C)C)CCN(c2ccc(-c3cc(-c4cnn(C5CCN(C(=O)CN6CCC(c7ccc(NC8CCC(=O)NC8=O)cc7F)CC6)CC5)c4)cn4ncc(C#N)c34)cc2)CC1 (centres unmarked) [Compound 58, 1-[4-[3-cyano-6-[1-[1-[2-[4-[4-[(2,6-dioxo-3-piperidyl)amino]-2-fluoro-phenyl]-1-piperidyl]acetyl]-4-piperidyl]pyrazol-4-yl]pyrazolo[1,5-a]pyridin-4-yl]phenyl]-4-ethyl-N-isopropyl-piperidine-4-carboxamide]",,< 50%,< 50 nM,,,,,,,,,,+++ (<50% = +++),++++ (< 50 nM = ++++),< 50 nM,++++ (< 50 nM = ++++),< 50 nM,< 30%
"N#Cc1cnn2cc(-c3ccc(N4CCN(C(=O)CC5(O)CCN(c6ccc(NC7CCC(=O)NC7=O)cc6F)CC5)CC4)cc3)nc(-c3ccc(N4CC5CC(C4)N5Cc4ccccc4)nc3)c12 (centres unmarked) [Compound 177, 4-(6-(6-benzyl-3,6-diazabicyclo[3.1.1]heptan-3-yl)pyridin-3-yl)-6-(4-(4-(2-(1-(4-((2,6-dioxopiperidin-3-yl)amino)-2-fluorophenyl)-4-hydroxypiperidin-4-yl)acetyl)piperazin-1-yl)phenyl)pyrazolo[1,5-a]pyrazine-3-carbonitrile]",++++ (<50 nM = ++++),< 30%,< 100 nM,++++ (<50 nM = ++++),< 30%,< 50 nM,,,,,,,,,,,,
